# Experimental data: patent publication US20120015923A1, “USE OF ANDROGRAPHOLIDE COMPOUNDS FOR TREATING INFLAMMATION AND AIRWAY DISORDERS” (NATIONAL UNIVERSITY OF SINGAPORE, priority 2009, published 2012)
# System: p65 NF-κB
# Test: p65 NF-κB nuclear translocation and DNA-binding in lung tissue nuclear extracts
# Type: in vivo, BALB/c mice
# Conditions: 1 mg/kg; 24 hours after last OVA aerosol; reduced to the basal levels
# Method: Lung and cell culture nuclear proteins ([…]) were isolated. Lysates were incubated on ice for 30 min before centrifugation (18,000 g for 5 min). The supernatants were collected, and protein concentrations were determined using a BCA protein assay kit. 28 μl of the protein measured were mixed with 7 μl 5× sample buffer and boiled at 95° C. for 5 min. 10% SDS-PAGE gel was set as known in the art. The gel was placed in a Trans-Blot tank (Bio-Rad Laboratories, Hercules, Calif.). 30 μl of the sample mixtures and Pre-stained SDS Page Marker (Bio-Rad Laboratories, Hercules, Calif.) were loaded into respective wells and ran at 100V for 2 hours. The proteins were then transferred to a PVDF membrane using a semi-dry transblotter (ATTO Corp, Tokyo, Japan). The PVDF membrane was blocked with 5% non-fat milk in Tween-20 Tris buffered saline (TTBS) for 2 hours and probed with various primary antibodies in 1% non-fat milk in TTBS (1:2,000 for anti-rabbit antibodies; 1:5,000 for anti-mouse antibodies; 1:10,000 for β-actin) overnight at 4° C. The PVDF was then washed with TTBS for 10 times (2-3 min each), and incubated in HRP- or AP-conjugated anti-mouse or anti-rabbit antibodies for 1 hour. The membrane was again washed with TTBS. […]
# Nuclear proteins were also analyzed for NF-κB DNA-binding activity using the TransAM p65 transcription factor assay kit (Active Motif, Carlsbad, Calif.).
compound,measurement,value
"C=C1CCC2C(C)(CO)C(O)CCC2(C)C1C=CC1=CCOC1=O (centres unmarked) [DDAG, 14-Deoxy-11,12-didehydroandrographolide]",nuclear p65 DNA-binding activity in lung tissue nuclear extract,significantly (P<0.05) reduced
same,nuclear p65 amount in lung tissue nuclear extract,significantly (P<0.05) reduced
